From patent US8283348B2, “1-benzyl-3-hydroxymethylindazole derivatives and use thereof in the treatment of diseases based on the expression of MCP-1, CX3CR1 and p40” (Aziende Chimiche Riunite Angelini Francesco A.C.R.A.F. …, priority 2008, dated 2012)
One block for each compound: values may come before it.

Columns and labels:
human CX3CR1 = assay: Gene expression of CX3CR1 in LPS-stimulated MonoMac6 cells (real-time RT-PCR); format: cell-based; conditions: MONO-MAC-6, CX3CR1 mRNA, LPS 100 ng/ml 20 h; for inhibition at 300 µM: MonoMac6, compound 300 μM (maximum soluble concentration); for inhibition at 75 µM: MonoMac6, compound 75 μM (maximum soluble concentration); for inhibition at 150 µM: MonoMac6, compound 150 μM (maximum soluble concentration)
Protocol: The capacity of the compounds to inhibit the expression of CX3CR1 by lipopolysaccharide (LPS)-stimulated MonoMac6 cells was evaluated. The cells were placed in 96-well plates at a concentration of 50 000 cells/well. The compounds were tested at the maximum soluble concentration given in Table 3 (in the range 30-300 μM) and incubated for 1 hour. The cells were then stimulated with LPS (100 ng/ml) for 20 hours. The total RNA was extracted from the cell pellet using the RNeasy mini kit (Qiagen), reverse-transcribed with the TaqMan Reverse transcription reagents synthesis kit (Applied Biosystems) and the cDNA obtained was used for the real-time PCR reaction. The amplification was obtained in 96-well plates using the ABI Prism 7000 sequence detection system (Applied Biosystems), by applying the following temperature profile: 50° C. for 2 minutes, 95° C. for 10 minutes and 45 cycles at 95° C. for 15 seconds and 60° C. for 1 minute. For the amplification, a set of primers and probe specific for human CX3CR1 was used (Applied Biosystems, RefSeq NM_001337.3). A set of primers and probe for β-actin was used in separate wells as an internal control of the samples for the purposes of normalization. Once the reaction had taken place, the fluorescence data were analysed using the ABI Prism 7000 SDS software, by calculating the threshold cycle (Ct) for each sample and subsequently performing a relative quantification via the ΔΔCt method. The results obtained, expressed as a percentage of inhibition, are collated in Table 3 below.

human MCP-1 = assay: Gene expression of MCP-1 in LPS-stimulated MonoMac6 cells (real-time RT-PCR); format: cell-based; conditions: MONO-MAC-6, MCP-1 mRNA, 1 h preincubation, LPS 100 ng/ml 4 h; for inhibition at 300 µM: MonoMac6, compound 300 μM (maximum soluble concentration); for inhibition at 75 µM: MonoMac6, compound 75 μM (maximum soluble concentration); for inhibition at 150 µM: MonoMac6, compound 150 μM (maximum soluble concentration)
Protocol: (§1) The capacity of the compounds to inhibit the expression of MCP-1 by lipopolysaccharide (LPS)-stimulated MonoMac6 cells was evaluated. The cells were placed in 96-well plates at a concentration of 50 000 cells/well. The compounds were tested at the maximum soluble concentration given in Table 1 (in the range 30-300 μM) and incubated for 1 hour. The cells were then stimulated with LPS (100 ng/ml) for 4 hours.
(§2) The total RNA was extracted from the cell pellet using the RNeasy mini kit (Qiagen), reverse-transcribed with the TaqMan Reverse transcription reagents synthesis kit (Applied Biosystems) and the cDNA obtained was used for the real-time PCR reaction. The amplification was obtained in 96-well plates using the ABI Prism 7000 sequence detection system (Applied Biosystems), by applying the following temperature profile: 50° C. for 2 minutes, 95° C. for 10 minutes and 45 cycles at 95° C. for 15 seconds and 60° C. for 1 minute. For the amplification, a set of primers and probe specific for human MCP-1 was used (Applied Biosystems, RefSeq NM_002982.3). A set of primers and probe for β-actin was used in separate wells as an internal control of the samples for the purposes of normalization. Once the reaction had taken place, the fluorescence data were analysed using the ABI Prism 7000 SDS software, by calculating the threshold cycle (Ct) for each sample and subsequently performing a relative quantification via the ΔΔCt method.
The results obtained, expressed as a percentage of inhibition, are collated in Table 1 below.

MCP-1 = assay: Production of MCP-1 protein by LPS-stimulated MonoMac6 cells (ELISA); format: cell-based; conditions: Homo sapiens, MONO-MAC-6, MCP-1 protein in supernatant (ELISA), LPS 100 ng/ml 20 h; for inhibition at 300 µM: MonoMac6, compound 300 μM (maximum soluble concentration); for inhibition at 75 µM: MonoMac6, compound 75 μM (maximum soluble concentration); for inhibition at 150 µM: MonoMac6, compound 150 μM (maximum soluble concentration); for inhibition at 30 µM: MonoMac6, compound 30 μM (maximum soluble concentration)
Protocol: as §1, with “expression of the protein MCP-1 by” for “expression of MCP-1 by”, “in Table 2 (in the” for “in Table 1 (in the”, “ng/ml) for 20 hours.” for “ng/ml) for 4 hours.”
The amount of MCP-1 produced was measured in the supernatants, suitably diluted with buffer, by means of an immunoenzymatic test (ELISA) using a commercial kit (ELISA MCP-1/JE, R&D Systems).
The results obtained, expressed as a percentage of inhibition, are collated in Table 2 below.

human p40 = assay: Gene expression of p40 in LPS-stimulated MonoMac6 cells (real-time RT-PCR); format: cell-based; conditions: MONO-MAC-6, p40 mRNA, LPS 100 ng/ml 4 h; for inhibition at 75 µM: MonoMac6, compound 75 μM (maximum soluble concentration); for inhibition at 150 µM: MonoMac6, compound 150 μM (maximum soluble concentration)
Protocol: as §1, with “of p40” for “of MCP-1”, “Table 4” for “Table 1”
as §2, with “p40” for “MCP-1”, “NM_002187.2).” for “NM_002982.3).”
The results obtained, expressed as a percentage of inhibition, are collated in Table 4 below.

[1] = MonoMac6, compound 30 μM (maximum soluble concentration)

Structure (SMILES): CC(C)(OCc1nn(Cc2ccccc2)c2ccccc12)C(=O)NNC(N)=O [Compound 12, 2-{2-[(1-benzyl-1H-indazol-3-yl)methoxy]-2-methylpropanoyl}hydrazinecarboxamide]
inhibition at 300 µM (human CX3CR1): 83%
inhibition at 300 µM (human MCP-1): 20%
inhibition at 300 µM (MCP-1): 48%

melting point: 136 to 137 °C
Structure (SMILES): CN(C)CCNC(=O)C(C)(C)OCc1nn(Cc2ccccc2)c2ccccc12.Cl [Compound 13, 2-[(1-benzyl-1H-indazol-3-yl)methoxy]-N-[2-(dimethylamino)ethyl]-2-methylpropanamide hydrochloride]
inhibition at 75 µM (human CX3CR1): 100%
inhibition at 75 µM (human MCP-1): 72%
inhibition at 75 µM (human p40): 59%
inhibition at 75 µM (MCP-1): 74%

melting point: 92 to 93 °C
Structure (SMILES): CC(C)(OCc1nn(Cc2ccccc2)c2ccccc12)C(=O)NN [Compound 11, 2-[(1-benzyl-1H-indazol-3-yl)methoxy]-2-methylpropanohydrazide]
inhibition at 150 µM (human CX3CR1): 90%
inhibition at 150 µM (human MCP-1): 68%
inhibition at 150 µM (human p40): 44%
inhibition at 150 µM (MCP-1): 79%

melting point: 124 to 125 °C
Structure (SMILES): CC(C)(OCc1nn(Cc2ccccc2)c2ccccc12)C(=O)NNc1ccccc1 [Compound 27, 2-[(1-benzyl-1H-indazol-3-yl)methoxy]-2-methyl-N′-phenylpropanohydrazide]
inhibition at 30 µM (MCP-1): 82%

melting point: 115 to 116 °C
Structure (SMILES): CC(C)(OCc1nn(Cc2ccccc2)c2ccccc12)C(=O)NO [Compound 10, 2-[(1-benzyl-1H-indazol-3-yl)methoxy]-N-hydroxy-2-methylpropanamide]
inhibition at 150 µM (human CX3CR1): 95%
inhibition at 150 µM (human MCP-1): 61%
inhibition at 150 µM (human p40): 54%
inhibition at 150 µM (MCP-1): 91%

melting point: 97 to 98 °C
Structure (SMILES): CN1CCN(C(=O)C(C)(C)OCc2nn(Cc3ccccc3)c3ccccc23)CC1 [Compound 15, 1-benzyl-3-{[1,1-dimethyl-2-(4-methylpiperazin-1-yl)-2-oxoethoxy]methyl}-1H-indazole]
inhibition at 75 µM (human CX3CR1): 89%
inhibition at 75 µM (human MCP-1): 40%
inhibition at 75 µM (human p40): 33%
inhibition at 75 µM (MCP-1): 59%

melting point: 111 to 112 °C
Structure (SMILES): CC(C)(OCc1nn(Cc2ccccc2)c2ccccc12)C(N)=O [Compound 9, 2-[(1-benzyl-1H-indazol-3-yl)methoxy]-2-methylpropanamide]
inhibition at 300 µM (human CX3CR1): 99%
inhibition at 300 µM (human MCP-1): 99%
inhibition at 300 µM (human p40; MonoMac6, compound 300 μM (maximum soluble concentration)): 96%
inhibition at 300 µM (MCP-1): 98%

melting point: 121 to 122 °C
Structure (SMILES): CC(C)(OCc1nn(Cc2ccccc2)c2ccccc12)C(=O)Nc1ccccn1 [Compound 14, 2-[(1-benzyl-1H-indazol-3-yl)methoxy]-2-methyl-N-pyrid-2-ylpropanamide]
inhibition at 30 µM (human CX3CR1; [1]): 44%
inhibition at 30 µM (human MCP-1; [1]): 49%
inhibition at 30 µM (human p40; [1]): 27%
inhibition at 30 µM (MCP-1): 70%
